The values that follow come from a melting point compilation (Tetko et al.; mined from patent text by program, amines drawn as free bases though some values may be those of a salt).

Turning to `OC1(C#Cc2ccc(OCCOc3ccccc3)cc2)CN2CCC1CC2` (stereo unspecified), the melting point was in the range of 207 to 208 °C. Next, `CCCn1nnn(-c2cc(C)c(Cl)cc2Cl)c1=O`: 47 to 48 °C; `O=C(O)c1cnn(-c2ccc(Cl)cc2Cl)c1C(F)(F)F`: 154 to 155 °C. For `Cc1noc([C@@H](Cc2ccccc2)NC(=O)[C@@H](Cc2ccc3ccccc3c2)NC(=O)[C@@H]2CCCN(C(=O)OC(C)(C)C)C2)n1`, the melting point was 198 to 200 °C. The result for `Cc1nc(N2CCN(CCCC(F)(F)F)C2=O)sc1-c1cc[nH]n1` reads 185 to 186 °C; that for `CC(C)C(=O)c1c[nH]c2c(COC(=O)c3ccccc3)cccc2c1=O`, 158 to 160 °C; that for `Clc1ccc2c(c1)C(c1ccccc1)=NCc1n[nH]cc1-2`, 241 to 243 °C. `C=Cc1ccc(C(=O)OC(C)(C)C)c(C#N)c1`: the melting point lay within 51 to 53 °C.

The compound `CC(C)[C@H](O)CP(=O)(O)CCCN` registered a melting point of 187 to 189 °C.

`CC(C)(C)OC(=O)Nc1cc(N2CCOCC2)c(I)cc1[N+](=O)[O-]` registered a melting point of 43 to 44 °C. With `Cc1c(C(F)(F)F)cnn(-c2ncc(Cl)cc2F)c1=O`, the melting point is 91 to 93 °C.

`CC1(C)CC(=C(c2ccc(O)cc2)c2ccc(OCCO)cc2)CC(C)(C)C1`: the melting point is 154 to 155 °C.

Turning to `Cc1c(C(=O)Nc2ccc(N3CCC(N(CCO)CCO)CC3)c(C#N)c2)cnn1-c1ccc(Cl)cc1`, the melting point fell in the range of 230 to 233 °C. `CCCOc1nc2ccsc2c(=O)n1CCC` yielded a melting point of 42 to 45 °C. The result for `c1ccc(-n2c(Cn3ccnc3)nc3ccccc32)cc1` reads 116 to 117 °C; that for `C#CCOc1ccccc1S(N)(=O)=O`, 143 to 145 °C; that for `COc1ccc(-c2nc(S(=O)c3ccc(C)cc3)n(C3CCCCO3)c2-c2ccc(OC)cc2)cc1` (stereo unspecified), 162 to 164 °C. In turn, `FC(F)c1nc2ccccc2n1-c1nc(NCc2cccnc2)nc(N2CCOCC2)n1` displayed a melting point of 160 to 161 °C.

In the case of `Cc1oc2ccc(C3CC(=O)NC(=O)C3)cc2c1C`, the melting point lay in the range of 183 to 185 °C.

For `Cc1c(C=O)cccc1-n1cccc1`, the melting point was found to be 82 °C.

Turning to `Fc1ccc(-c2c[nH]cn2)cc1`, the melting point lay within 130 to 132 °C. In turn, `COc1ccc2c(c1)C13CCN(C#N)C(C2)C1C(C)CC(=O)C3` (stereo unspecified) showed a melting point of 202 to 205 °C. Next, `O=[N+]([O-])c1cnn2c1-c1ccccc1NC2`: 156 to 157 °C; `Nc1nc2cc(S(=O)(=O)c3ccccc3)ccc2s1`: 278 to 280 °C; `Nc1ncnc2c1c(-c1ccc(OCc3ccccc3)cc1)cn2-c1ccc(OCCn2ccnc2)cc1`: 105 to 107 °C.

With `CSc1nc(=O)n(C(C)(C)C)c(=O)[nH]1`, the melting point lay in the range of 112 to 115 °C. Turning to `CC(=O)CS(=O)CCc1ccc2c(c1)OCO2` (stereo unspecified), the melting point lay within 82 to 84.5 °C.

`OC1CCc2c(-c3cccs3)cccc21` (stereo unspecified) gave a melting point of 101 to 104 °C. Next, `COc1c(OS(=O)(=O)c2ccc(C)cc2)cc2c(c1OC)C1=C(CCC1)C(N1C(=O)c3ccccc3C1=O)CC2` (stereo unspecified): 139 °C; `CCOCn1nccc1C(=O)c1ccc(OCC(=O)O)c(Cl)c1Cl`: 148 to 149 °C; `CCCc1c(C(=O)C(C)C)c2ccc(C(N)=O)cc2n1Cc1ccc(F)cc1Cl`: 192 to 193 °C. In turn, `Oc1ccc(Oc2ccc(I)cn2)cc1` yielded a melting point of 110 °C. As for `Nc1ncc2c(n1)CCC(NC(=O)[C@@H]1CCCN1C(=O)[C@@H](CC1CCCCC1)NS(=O)(=O)Cc1ccccc1)C2` (stereo partly specified), the melting point lay in the range of 114 to 117 °C.

The compound `COc1cc2cc([N+](=O)[O-])ccc2c([N+](=O)[O-])c1O` returned a melting point of 239 to 242 °C.

In the case of `N#Cc1c(F)c(F)cc(C(=O)O)c1F`, the melting point lay within 187 to 190 °C.

Regarding `CC(C)(C)NC(=O)[C@@H]1C[C@H](Sc2ccccc2)CN1C(=O)OC(C)(C)C`, the melting point fell in the range of 119 to 121 °C. In turn, `O=C(O)Cn1cc(Cc2nc3c(F)c(F)cc(F)c3s2)c2cc(Cl)ccc21` yielded a melting point of 188 to 189 °C.

For `CCOC(=O)C1=C(C(=O)OCC)C(c2ccccc2[N+](=O)[O-])C(C(=O)OCC)=C(C(=O)OCC)N1`, the melting point amounted to 109 °C. The result for `CS(=O)(=O)OCC1CCN(c2ccc(Br)cc2)C1=O` (stereo unspecified) reads 120 to 123 °C; that for `CCCc1nc(C(C)(C)O)c(C(=O)OCC)n1Cc1ccc(-c2ccccc2C(=O)OC(C)(C)C)cc1`, 90 to 91 °C.

Compound `Cc1cc(=O)[nH]c2ccc(Br)cc12` had a melting point of 292 to 299 °C. In turn, `COC(=O)c1ccc(C(C)(C)NC(C)=O)cc1` gave a melting point of 165 to 167 °C. `CC1c2cccc3c2N(CC3)c2ccccc2N1C(=O)CCN1CCN(c2ccccc2)CC1` (stereo unspecified) showed a melting point of 139 to 141 °C. On to `Cc1cn2c(C(F)(F)F)nnc2c2ccccc12`, for which the melting point lay within 162 to 164 °C. Consider `CCCCCCCCCCCCc1ccc2cccnc2c1O`, for which the melting point is 88.5 to 90 °C.

In turn, `CC(Cl)OC(=O)c1ncc[nH]1` (stereo unspecified) displayed a melting point of 50 °C. `O=C1CCNc2ccccc2N1c1ccccc1` yielded a melting point of 170 to 171 °C.

Consider `CCCNC(=O)Nc1nc(-c2cc(C)cc(C)c2)c(-c2ccncc2)s1`, for which the melting point was 128 to 130 °C.

The compound `O=[N+]([O-])c1cc(CS)cc(O)c1O` came in with a melting point of 179 to 185 °C. The result for `O=C1N(Cc2ncccc2Cl)c2ccccc2C12COc1cc3c(cc12)OCCO3` (stereo unspecified) reads 176 to 178 °C. With `COc1cccc2c1nc(C(F)F)n2-c1nc(N2CCOCC2)c2ncn(-c3cncnc3)c2n1`, the melting point lay within 248 to 251 °C.

Consider `CCn1c(=O)[nH]c2ncn(CC)c2c1=O`, for which the melting point was 204 to 205 °C. As to `COc1cc2c(cc1Nc1ncc(Cl)c(N[C@H]3[C@@H](C(N)=O)[C@@H]4C=C[C@H]3C4)n1)NCCN(CC1CC1)C2`, the melting point was in the range of 149 to 151 °C. For `Cc1cccc(-n2nc3c(c2-c2cc4cnccc4s2)CCC3)n1`, the melting point lay within 146 to 148 °C. Compound `O=Cc1cccn1-c1ccc(C(F)(F)F)cc1Cl` registered a melting point of 119 to 120 °C. Next, `O=C1c2ccccc2C(=O)c2cc(OCC3CO3)ccc21` (stereo unspecified): 162 to 167 °C; `CCOC(=O)Cn1cc(C(=O)OCC)c(=O)c2ccccc(=O)c21`: 152 to 154 °C. In turn, `COC(=O)c1c(C)cccc1[N+](=O)[O-]` came in with a melting point of 44 to 45 °C.

`Cc1cc(Cl)ccc1Cn1nc(C=O)c2ccccc21` yielded a melting point of 107 to 109 °C. In turn, `Nc1cc(C(=O)NC2CCC2)n[nH]1` showed a melting point of 147 °C.

On to `CC(=O)c1nc2c(cc1F)C[C@@H]1CN(C(=O)OC(C)(C)C)C[C@@H](C)N21`, for which the melting point is 178 to 180 °C. Next, `Cc1c(/C=C/C(=O)c2cccc3ccccc23)ncn1C(c1ccccc1)(c1ccccc1)c1ccccc1`: 184 to 186 °C; `CC(O)C(O)c1nc2c(C(F)(F)F)cccc2c(O)c1C(=O)Nc1nccs1` (stereo unspecified): 275 °C; `O=C1c2ccccc2C(=O)N1CCCCCSc1ccccc1`: 87 to 88 °C. With `CC(NC(=O)OC(C)(C)C)C(=O)NC1CCN(c2c(F)cc3c(=O)c(C(=O)O)cn(C4CC4)c3c2F)C1` (stereo unspecified), the melting point is 185 to 187 °C. As to `COC(=O)c1cccc2c1CCC2C#N` (stereo unspecified), the melting point is 76.5 to 77.5 °C. The result for `O=C(O)CCCN(C(=O)c1ccc(F)cc1)c1ccccc1-c1ccccc1` reads 120 to 122 °C; that for `COc1ccc2c(c1)N(c1ccc(F)cc1)C(=O)C2(CCc1nnn[nH]1)NC(=O)c1cc2ccccc2cn1` (stereo unspecified), 154 to 160 °C. Next, `COc1c(Cl)ccc(-c2nc(C(=O)OC(C)C)c(Cl)c(N)c2F)c1F`: 109 to 111 °C; `CN(C(=O)O)c1cccc(-c2ccnc3c(C(=O)c4cccs4)cnn23)c1`: 215 to 217 °C. As to `Cc1csc(N)c1S(=O)(=O)CC#N`, the melting point lay within 88 to 90 °C.

`O=C(OCCO)c1cc(-c2ccc(Cl)cc2)c[nH]1` showed a melting point of 128 to 130 °C.

Turning to `O=C(O)c1cn(-c2nncs2)c2cc(F)c(F)cc2c1=O`, the melting point was in the range of 233 to 236 °C. `CC(C)(C)NCC(O)COc1ccc(C(=O)Nc2cccc3[nH]ccc23)cc1` (stereo unspecified) displayed a melting point of 212 °C. Consider `CC(NC(=O)C1C(O)N(Cc2ccccc2)C(=O)N1Cc1ccccc1)c1cccs1` (stereo unspecified), for which the melting point lay within 108 to 129 °C. In turn, `Cc1cccc(C2CCN(C(=O)CCC(=O)c3ccc4c(c3)CCN(C(=O)C(F)(F)F)CC4)CC2)c1` came in with a melting point of 128 to 129 °C. Next, `CCCCSc1ccc(C(=O)O)nc1`: 100 to 102 °C; `O=C1C2=C(CCCC2)C(O)N1c1ccc(Cl)cc1F` (stereo unspecified): 178 to 179 °C; `O=C(c1ccc(C2=CCCc3ccccc32)cc1)N1Cc2cccn2Cc2ccccc21`: 81 °C.

For `O=C(O)CCC(=O)c1ccc(OCCCCN2C(=O)c3ccccc3C2=O)cc1`, the melting point was 133 to 134 °C.

Consider `O[C@@H](CNCCOc1ccc2oc(-c3noc(C(F)(F)F)n3)cc2c1)COc1ccccc1F`, for which the melting point was 117 to 119 °C. Take `COc1ccc2ccc(NC(=O)c3ccco3)nc2n1`: the melting point worked out at 201 °C. In the case of `Cc1c(C(=O)Nc2ccc(N3CCC(N4CCOCC4)CC3)c(C#N)c2)cnn1-c1ccc(F)c(F)c1`, the melting point was determined as 243 °C. The compound `CN1N=C(c2ccc3c(c2)CCC(=O)N3)C2CC2C1=O` (stereo unspecified) yielded a melting point of 255 to 259 °C. Compound `Cc1cc(-c2nnc3c4cccnc4c(OCc4ncnn4C)nn23)no1` had a melting point of 255 to 257 °C. For `NC(=O)C1(c2ccccc2)OC(=O)c2ccccc21` (stereo unspecified), the melting point was in the range of 225 to 227 °C.

For `CCOC(Cc1ccc(OCc2nc(C(C)(C)C)oc2C)c(C)c1)C(=O)O` (stereo unspecified), the melting point was 95 to 97 °C. The result for `O=[N+]([O-])c1ccc(OCc2ccccc2)cc1Cl` reads 82 to 84.5 °C; that for `O=C(Nc1cccc2c(-n3ccnc3)c(Br)cnc12)c1c(-n2ccnc2)cccc1-n1ccnc1`, 175 to 185 °C. Next, `NC(=O)c1ccccc1NCCC12CCCN1CCC2`: 145 to 147 °C; `O=C(NCc1ccc(Cl)cc1)c1cnc2sc(C(=O)N3CCOCC3)cc2c1O`: 217 to 219 °C.

Broadly, the melting point is the temperature, or range, at which the solid turns liquid.
